From the NIST ThermoML archive (doi:10.1021/je0301038)
± gives the expanded uncertainty stated by the source.

Test: xn = mol fraction of the nth substance listed
Conditions: Liquid, Pycnometric method, x1 = 0.4998

Compound: FC(Cl)(Cl)Cl [trichlorofluoromethane] + FC(F)(Cl)Cl
- mass density (229.99 K, 36407 kPa): 1642.58 ± 1.7 kg/m3
- mass density (230 K, 1073 kPa): 1584.87 ± 2 kg/m3
- mass density (230 K, 2061 kPa): 1587.07 ± 2 kg/m3
- mass density (230 K, 3560 kPa): 1589.87 ± 2 kg/m3
- mass density (230.01 K, 1362 kPa): 1585.49 ± 2 kg/m3
- mass density (230.01 K, 1769 kPa): 1586.39 ± 2 kg/m3
- mass density (230.01 K, 2415 kPa): 1587.69 ± 2 kg/m3
- mass density (230.01 K, 2764 kPa): 1588.35 ± 2 kg/m3
- mass density (230.01 K, 3080 kPa): 1589 ± 2 kg/m3
- mass density (230.01 K, 10736 kPa): 1602.83 ± 1.9 kg/m3
- mass density (230.01 K, 22197 kPa): 1621.64 ± 1.8 kg/m3
- mass density (230.01 K, 50366 kPa): 1660.98 ± 1.7 kg/m3
- mass density (230.01 K, 63788 kPa): 1677.26 ± 1.6 kg/m3
- mass density (270 K, 755 kPa): 1479.99 ± 2 kg/m3
- mass density (270 K, 1039 kPa): 1480.78 ± 2 kg/m3
- mass density (270 K, 1716 kPa): 1482.68 ± 2 kg/m3
- mass density (270 K, 2040 kPa): 1483.59 ± 2 kg/m3
- mass density (270 K, 2400 kPa): 1484.58 ± 2 kg/m3
- mass density (270 K, 2768 kPa): 1485.54 ± 2 kg/m3
- mass density (270 K, 3627 kPa): 1487.88 ± 2 kg/m3
- mass density (270 K, 15483 kPa): 1517.06 ± 1.8 kg/m3
- mass density (270 K, 25381 kPa): 1538 ± 1.7 kg/m3
- mass density (270 K, 35970 kPa): 1557.73 ± 1.7 kg/m3
- mass density (270 K, 45944 kPa): 1574.79 ± 1.6 kg/m3
- mass density (270 K, 56182 kPa): 1590.7 ± 1.6 kg/m3
- mass density (270 K, 63322 kPa): 1601.09 ± 1.6 kg/m3
- mass density (270.01 K, 1412 kPa): 1481.79 ± 2 kg/m3
- mass density (270.01 K, 3077 kPa): 1486.41 ± 2 kg/m3
- mass density (270.01 K, 8526 kPa): 1500.56 ± 1.9 kg/m3
- mass density (298.14 K, 686 kPa): 1402.27 ± 2.1 kg/m3
- mass density (298.14 K, 1019 kPa): 1403.48 ± 2.1 kg/m3
- mass density (298.14 K, 2067 kPa): 1407.39 ± 2.1 kg/m3
- mass density (298.14 K, 2429 kPa): 1408.71 ± 2.1 kg/m3
- mass density (298.14 K, 2749 kPa): 1409.89 ± 2.1 kg/m3
- mass density (298.14 K, 6905 kPa): 1424.28 ± 2 kg/m3
- mass density (298.14 K, 14368 kPa): 1447.12 ± 1.9 kg/m3
- mass density (298.14 K, 20993 kPa): 1465.01 ± 1.8 kg/m3
- mass density (298.14 K, 42543 kPa): 1512.9 ± 1.6 kg/m3
- mass density (298.14 K, 50266 kPa): 1527.35 ± 1.6 kg/m3
- mass density (298.14 K, 57226 kPa): 1539.49 ± 1.6 kg/m3
- mass density (298.14 K, 63755 kPa): 1550.31 ± 1.6 kg/m3
- mass density (298.14 K, 69807 kPa): 1559.74 ± 1.5 kg/m3
- mass density (298.15 K, 1398 kPa): 1404.87 ± 2.1 kg/m3
- mass density (298.15 K, 1714 kPa): 1406.06 ± 2.1 kg/m3
- mass density (298.15 K, 3086 kPa): 1411.1 ± 2.1 kg/m3
- mass density (298.15 K, 3454 kPa): 1412.44 ± 2.1 kg/m3
- mass density (298.15 K, 28151 kPa): 1482.31 ± 1.7 kg/m3
- mass density (298.15 K, 36116 kPa): 1499.98 ± 1.6 kg/m3
- mass density (319.99 K, 1077 kPa): 1338.31 ± 2.4 kg/m3
- mass density (319.99 K, 1422 kPa): 1340.05 ± 2.4 kg/m3
- mass density (319.99 K, 1769 kPa): 1341.72 ± 2.3 kg/m3
- mass density (319.99 K, 2102 kPa): 1343.35 ± 2.3 kg/m3
- mass density (319.99 K, 2468 kPa): 1345.14 ± 2.3 kg/m3
- mass density (319.99 K, 2807 kPa): 1346.81 ± 2.3 kg/m3
- mass density (319.99 K, 3154 kPa): 1348.46 ± 2.3 kg/m3
- mass density (319.99 K, 3382 kPa): 1349.54 ± 2.2 kg/m3
- mass density (319.99 K, 7540 kPa): 1367.61 ± 2.1 kg/m3
- mass density (319.99 K, 14192 kPa): 1392.66 ± 1.9 kg/m3
- mass density (319.99 K, 20555 kPa): 1413.23 ± 1.8 kg/m3
- mass density (319.99 K, 27780 kPa): 1434.19 ± 1.7 kg/m3
- mass density (319.99 K, 36829 kPa): 1456.94 ± 1.6 kg/m3
- mass density (319.99 K, 43292 kPa): 1471.79 ± 1.6 kg/m3
- mass density (319.99 K, 49802 kPa): 1485.45 ± 1.5 kg/m3
- mass density (319.99 K, 56704 kPa): 1498.94 ± 1.5 kg/m3
- mass density (319.99 K, 62748 kPa): 1510.07 ± 1.5 kg/m3
- mass density (319.99 K, 69080 kPa): 1521.1 ± 1.5 kg/m3
- mass density (349.98 K, 1415 kPa): 1240.4 ± 2.5 kg/m3
- mass density (349.98 K, 2137 kPa): 1246.23 ± 2.7 kg/m3
- mass density (349.98 K, 2476 kPa): 1248.87 ± 2.6 kg/m3
- mass density (349.98 K, 2793 kPa): 1251.27 ± 2.6 kg/m3
- mass density (349.98 K, 3057 kPa): 1253.22 ± 2.5 kg/m3
- mass density (349.98 K, 3564 kPa): 1256.93 ± 2.5 kg/m3
- mass density (349.98 K, 7128 kPa): 1280.11 ± 2.3 kg/m3
- mass density (349.98 K, 14242 kPa): 1317.8 ± 2 kg/m3
- mass density (349.98 K, 21180 kPa): 1347.2 ± 1.8 kg/m3
- mass density (349.98 K, 27731 kPa): 1370.9 ± 1.7 kg/m3
- mass density (349.98 K, 35848 kPa): 1396.4 ± 1.6 kg/m3
- mass density (349.98 K, 42725 kPa): 1415.5 ± 1.6 kg/m3
- mass density (349.98 K, 49699 kPa): 1433.1 ± 1.6 kg/m3
- mass density (349.98 K, 63152 kPa): 1463.4 ± 1.5 kg/m3
- mass density (349.98 K, 67876 kPa): 1472.9 ± 1.5 kg/m3
- mass density (349.99 K, 1706 kPa): 1242.74 ± 2.6 kg/m3
- mass density (349.99 K, 56839 kPa): 1449.7 ± 1.5 kg/m3
- mass density (374.97 K, 2088 kPa): 1141.8 ± 3.1 kg/m3
- mass density (374.97 K, 2486 kPa): 1147.25 ± 3.3 kg/m3
- mass density (374.97 K, 3125 kPa): 1156.09 ± 3.4 kg/m3
- mass density (374.97 K, 3513 kPa): 1160.16 ± 3.3 kg/m3
- mass density (374.97 K, 7191 kPa): 1197.39 ± 2.6 kg/m3
- mass density (374.97 K, 13814 kPa): 1245.37 ± 2.1 kg/m3
- mass density (374.97 K, 21029 kPa): 1284.3 ± 1.9 kg/m3
- mass density (374.97 K, 35276 kPa): 1341.17 ± 1.7 kg/m3
- mass density (374.98 K, 2825 kPa): 1151.69 ± 3.3 kg/m3
- mass density (374.98 K, 27477 kPa): 1312.44 ± 1.8 kg/m3
- mass density (374.98 K, 42480 kPa): 1364.11 ± 1.6 kg/m3
- mass density (374.98 K, 49122 kPa): 1383.05 ± 1.6 kg/m3
- mass density (374.98 K, 55869 kPa): 1400.52 ± 1.6 kg/m3
- mass density (374.98 K, 61365 kPa): 1413.75 ± 1.5 kg/m3
- mass density (374.98 K, 69602 kPa): 1432.06 ± 1.6 kg/m3
- mass density (399.96 K, 3164 kPa): 1019.46 ± 4 kg/m3
- mass density (399.96 K, 4220 kPa): 1047.59 ± 4.6 kg/m3
- mass density (399.96 K, 21341 kPa): 1223.13 ± 2 kg/m3
- mass density (399.97 K, 3545 kPa): 1030.57 ± 4.2 kg/m3
- mass density (399.97 K, 4902 kPa): 1062.22 ± 4.8 kg/m3
- mass density (399.97 K, 5593 kPa): 1075.12 ± 4.6 kg/m3
- mass density (399.97 K, 6171 kPa): 1085.57 ± 3.5 kg/m3
- mass density (399.97 K, 7297 kPa): 1101.78 ± 3.2 kg/m3
- mass density (399.97 K, 14445 kPa): 1176.05 ± 2.3 kg/m3
- mass density (399.97 K, 27495 kPa): 1255.89 ± 1.8 kg/m3
- mass density (399.97 K, 42176 kPa): 1315.43 ± 1.6 kg/m3
- mass density (399.97 K, 49196 kPa): 1338.37 ± 1.6 kg/m3
- mass density (399.97 K, 56478 kPa): 1359.31 ± 1.6 kg/m3
- mass density (399.98 K, 35409 kPa): 1290.45 ± 1.7 kg/m3
- mass density (399.98 K, 62903 kPa): 1376.29 ± 1.5 kg/m3
- mass density (399.98 K, 68677 kPa): 1390.42 ± 1.6 kg/m3
- mass density (424.96 K, 4905 kPa): 873.33 ± 5.4 kg/m3
- mass density (424.96 K, 5555 kPa): 914.74 ± 4.7 kg/m3
- mass density (424.96 K, 6222 kPa): 944.04 ± 4.2 kg/m3
- mass density (424.96 K, 7091 kPa): 972.83 ± 3.5 kg/m3
- mass density (424.96 K, 13955 kPa): 1091.53 ± 2.8 kg/m3
- mass density (424.96 K, 27401 kPa): 1198.64 ± 1.9 kg/m3
- mass density (424.97 K, 21076 kPa): 1156.9 ± 2.1 kg/m3
- mass density (424.97 K, 35181 kPa): 1238.98 ± 1.7 kg/m3
- mass density (424.97 K, 41997 kPa): 1268.18 ± 1.6 kg/m3
- mass density (424.97 K, 49019 kPa): 1294.18 ± 1.6 kg/m3
- mass density (424.97 K, 56094 kPa): 1317.32 ± 1.6 kg/m3
- mass density (424.97 K, 62391 kPa): 1335.91 ± 1.6 kg/m3
- mass density (424.97 K, 68657 kPa): 1352.82 ± 1.6 kg/m3
